Laboratory results published in US8148391B2 (Cephalon, Inc., priority 2006, dated 2012).
Like-named read-outs stand apart in the source and are kept apart here.

How the values were obtained:
[1] = biological target: T1, baculovirus-expressed ALK (Homo sapiens, UniProt Q9UM73); assay: ALK Kinase Assay (ELISA-type, time-resolved fluorescence); type: biochemical
T1 construct: host or cells: baculovirus expression system
Summary of the method: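 Substrate coating: phospholipase C-γ, 10 μg/mL in TBS. Kinase step: 30 ng/ml ALK, 15 min, 37° C. Detection and analysis: Eu-N1 PT66 antibody, with IC50 fitted as a sigmoidal variable-slope dose-response curve.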

[2] = biological target: T2, c-Met (cytoplasmic domain) (Homo sapiens, UniProt P08581); assay: c-Met Kinase Assay (same methods as for ALK, with modifications); type: biochemical
T2 construct: 10 ng/mL c-Met (cytoplasmic domain, Invitrogen Corporation #PV3143); purchased Invitrogen Corporation PV3143
Summary of the method: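 This plate-based kinase format uses immobilized phospholipase C-γ as substrate, phosphorylated by c-Met cytoplasmic domain (10 ng/mL) at 37° C for 15 minutes.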

[3] = ALK kinase inhibition, 1 μM ATP, read-out: ALK Activity
[4] = c-Met kinase inhibition, 1 μM ATP, read-out: cMet Activity
[5] = 1 μM ATP (Km level), 30 ng/ml ALK, 37° C., 15 minutes, read-out: ALK Activity (ALK kinase inhibition, IC50 class)
[6] = 1 μM ATP (Km level), 10 ng/mL c-Met, read-out: cMet Activity (c-Met kinase inhibition, IC50 class)
[7] = 1 μM ATP (Km level), read-out: ALK Activity (ALK Kinase Inhibition, IC50)
[8] = 1 μM ATP (Km level), read-out: cMet Activity (c-Met Kinase Inhibition, IC50)
[9] = ALK kinase inhibition, 1 μM ATP (Km level), read-out: ALK Activity
[10] = c-Met kinase inhibition, 1 μM ATP (Km level), read-out: cMet Activity

T2 sequence (P08581 956-1390 limits assumed): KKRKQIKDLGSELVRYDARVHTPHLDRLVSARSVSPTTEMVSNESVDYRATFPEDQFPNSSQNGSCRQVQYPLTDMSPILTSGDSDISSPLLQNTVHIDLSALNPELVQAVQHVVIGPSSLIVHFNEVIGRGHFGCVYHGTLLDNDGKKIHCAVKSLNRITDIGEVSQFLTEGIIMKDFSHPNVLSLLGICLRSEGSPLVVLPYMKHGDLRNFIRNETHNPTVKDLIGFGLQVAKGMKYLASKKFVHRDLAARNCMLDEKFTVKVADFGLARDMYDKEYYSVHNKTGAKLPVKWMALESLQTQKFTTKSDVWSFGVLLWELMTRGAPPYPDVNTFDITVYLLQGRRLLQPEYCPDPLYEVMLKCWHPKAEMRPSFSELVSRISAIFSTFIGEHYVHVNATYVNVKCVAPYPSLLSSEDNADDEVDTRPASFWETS
T1 sequence (Q9UM73 19-1620): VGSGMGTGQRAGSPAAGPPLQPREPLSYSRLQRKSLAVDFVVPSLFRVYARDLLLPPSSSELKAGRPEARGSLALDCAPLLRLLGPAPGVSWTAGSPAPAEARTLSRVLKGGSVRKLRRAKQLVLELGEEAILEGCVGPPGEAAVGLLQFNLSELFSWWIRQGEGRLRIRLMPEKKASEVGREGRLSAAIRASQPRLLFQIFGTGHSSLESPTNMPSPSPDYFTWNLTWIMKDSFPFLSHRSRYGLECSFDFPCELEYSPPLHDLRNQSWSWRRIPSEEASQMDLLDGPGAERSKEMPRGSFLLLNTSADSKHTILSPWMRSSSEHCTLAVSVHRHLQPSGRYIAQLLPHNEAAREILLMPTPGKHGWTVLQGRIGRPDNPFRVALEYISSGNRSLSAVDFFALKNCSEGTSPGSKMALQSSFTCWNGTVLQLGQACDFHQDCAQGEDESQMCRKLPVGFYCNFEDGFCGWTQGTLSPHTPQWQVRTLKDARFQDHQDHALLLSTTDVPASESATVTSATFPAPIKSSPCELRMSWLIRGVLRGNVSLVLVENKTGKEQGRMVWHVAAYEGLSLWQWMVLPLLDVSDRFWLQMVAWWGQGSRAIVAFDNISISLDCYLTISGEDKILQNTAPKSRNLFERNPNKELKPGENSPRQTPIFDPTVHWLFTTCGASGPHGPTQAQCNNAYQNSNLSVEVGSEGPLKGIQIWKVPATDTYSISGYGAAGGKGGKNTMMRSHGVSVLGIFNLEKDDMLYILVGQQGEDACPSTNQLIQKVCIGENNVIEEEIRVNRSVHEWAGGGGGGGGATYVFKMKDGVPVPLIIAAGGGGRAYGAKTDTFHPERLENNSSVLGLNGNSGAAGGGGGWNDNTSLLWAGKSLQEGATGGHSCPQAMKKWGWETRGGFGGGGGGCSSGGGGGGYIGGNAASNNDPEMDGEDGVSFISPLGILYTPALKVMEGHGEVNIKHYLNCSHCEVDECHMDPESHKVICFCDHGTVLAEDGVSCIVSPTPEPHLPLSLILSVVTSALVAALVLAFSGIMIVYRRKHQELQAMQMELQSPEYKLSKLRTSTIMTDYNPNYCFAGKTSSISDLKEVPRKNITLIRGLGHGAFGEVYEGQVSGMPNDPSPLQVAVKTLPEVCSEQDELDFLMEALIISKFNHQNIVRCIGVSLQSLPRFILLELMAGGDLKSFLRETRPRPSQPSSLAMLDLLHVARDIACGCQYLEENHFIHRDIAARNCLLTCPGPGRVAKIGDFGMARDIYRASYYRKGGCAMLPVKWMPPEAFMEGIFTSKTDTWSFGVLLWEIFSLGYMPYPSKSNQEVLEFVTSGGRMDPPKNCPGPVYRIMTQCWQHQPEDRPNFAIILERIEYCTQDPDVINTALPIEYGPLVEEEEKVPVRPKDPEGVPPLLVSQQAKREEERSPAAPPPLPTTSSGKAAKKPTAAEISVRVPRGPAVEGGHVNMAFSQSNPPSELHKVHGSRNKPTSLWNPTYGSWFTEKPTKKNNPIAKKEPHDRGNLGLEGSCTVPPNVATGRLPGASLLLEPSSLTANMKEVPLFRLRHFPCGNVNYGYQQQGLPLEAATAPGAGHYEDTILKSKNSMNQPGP

Compound | IC50 [1, 5] [nM] | IC50 [2, 6] [nM] | IC50 [1, 7] [nM] | IC50 [2, 8] [nM] | further results
COc1cc(N2CCOCC2)ccc1Nc1nc(Nc2ccc3c(c2)N(CCN(C)C)CCCC3(C)C)ncc1Cl [Example 1641, 5-Chloro-N*2*-[1-(2-dimethylamino-ethyl)-5,5-dimethyl-2,3,4,5-tetrahydro-1H-benzo[b]azepin-8-yl]-N*4*-(2-methoxy-4-morpholin-4-yl-phenyl)-pyrimidine-2,4-diamine] |  |  |  |  | IC50 [1, 3]: < 100 nM; IC50 [2, 4]: 1000 to 10000 nM
COCCOC(=O)c1ccccc1Nc1nc(Nc2cc3c(cc2OC)CCC(NCCO)CC3)ncc1Cl (stereo not shown) [Example 1093, 2-{5-Chloro-2-[7-(2-hydroxy-ethylamino)-3-methoxy-6,7,8,9-tetrahydro-5H-benzocyclohepten-2-ylamino]-pyrimidin-4-ylamino}-benzoic acid 2-methoxy-ethyl ester] | < 100 | > 10000 |  |  | 
C#CCNC(=O)c1cccc(F)c1Nc1nc(Nc2ccc3c(c2)NC(=O)C(N)CC3(C)C)ncc1Cl (stereo not shown) [Example 1280, 2-[2-(3-Amino-5,5-dimethyl-2-oxo-2,3,4,5-tetrahydro-1H-1-benzazepin-8-ylamino)-5-chloro-pyrimidin-4-ylamino]-3-fluoro-N-prop-2-ynyl-benzamide] | < 100 | < 100 |  |  | 
CCN1CCN(CC)c2cc(Nc3ncc(Cl)c(N[C@H]4[C@@H]5CC[C@@H](C5)[C@H]4C(N)=O)n3)ccc2C1 [Example 717, (2-exo,3-exo)-3-[5-Chloro-2-(1,4-diethyl-2,3,4,5-tetrahydro-1H-1,4-benzodiazepin-8-ylamino)-pyrimidin-4-ylamino]bicyclo[2.2.1]heptane-2-carboxylic acid amide] |  |  | < 100 | 1000 to 10000 | 
COc1c(Nc2ncc(Cl)c(N[C@H]3[C@@H](C(N)=O)[C@@H]4C=C[C@H]3C4)n2)ccc2c1CC(N1CCOCC1)CCC2 (mixture of isomers) [Example 1204, (1S,2S,3R,4R)-3-[5-Chloro-2-(1-methoxy-8-morpholin-4-yl-6,7,8,9-tetrahydro-5H-benzocyclohepten-2-ylamino)-pyrimidin-4-ylamino]-bicyclo[2.2.1]hept-5-ene-2-carboxylic acid amide] | < 100 |  |  |  | IC50 ([2]; cMet Activity (c-Met kinase inhibition, IC50 class), 1 μM ATP (Km level), 10 ng/mL c-Met): > 10000 nM
COc1cc2c(cc1Nc1ncc(Cl)c(Nc3ccccc3S(=O)(=O)C(C)C)n1)CCN(C(CF)CF)CC2 [Example 1394, Chloro-N(2)-[3-(2-fluoro-1-fluoromethyl-ethyl)-8-methoxy-2,3,4,5-tetrahydro-1H-benzo[d]azepin-7-yl]-N(4)-[2-(propane-2-sulfonyl)-phenyl]-pyrimidine-2,4-diamine] | < 100 | > 10000 |  |  | 
COCC(=O)NC1CC(C)(C)c2ccc(Nc3ncc(Cl)c(Nc4c(F)cccc4C(=O)NCC#N)n3)cc2NC1=O (stereo not shown) [Example 1637, 2-{5-Chloro-2-[3-(2-methoxy-acetylamino)-5,5-dimethyl-2-oxo-2,3,4,5-tetrahydro-1H-benzo[b]azepin-8-ylamino]-pyrimidin-4-ylamino}-N-cyanomethyl-3-fluoro-benzamide] |  |  |  |  | IC50 [1, 3]: < 100 nM; IC50 [2, 4]: < 100 nM
3-({2-[5-Chloro-2-(1-ethyl-5,5-dimethyl-2-oxo-2,3,4,5-tetrahydro-1H-1-benzazepin-8-ylamino)-pyrimidin-4-ylamino]-3-fluoro-phenyl}-methyl-amino)-propionitrile [Example 1265] | 100 to 1000 | 1000 to 10000 |  |  | 
CNC(=O)c1ccccc1Nc1nc(Nc2ccc3c(c2)N(C)CCN(S(C)(=O)=O)C3)ncc1Cl [Example 483, 2-[5-Chloro-2-(4-methanesulfonyl-1-methyl-2,3,4,5-tetrahydro-1H-benzo[e][1,4]diazepin-8-ylamino)-pyrimidin-4-ylamino]-N-methyl-benzamide] |  |  |  |  | IC50 [1, 9]: < 100 nM; IC50 [2, 10]: < 100 nM
COc1cc2c(cc1Nc1ncc(Cl)c(Nc3ccccc3S(=O)(=O)N(C)C)n1)CCN(C(=O)C1COCCO1)CC2 (stereo not shown) [Example 634, 2-{5-Chloro-2-[3-([1,4]dioxane-2-carbonyl)-8-methoxy-2,3,4,5-tetrahydro-1H-benzo[d]azepin-7-ylamino]-pyrimidin-4-ylamino}-N,N-dimethyl-benzenesulfonamide] |  |  | < 100 | > 10000 | 
CNC(=O)c1ccccc1Nc1nc(Nc2ccc3c(c2)N(C)CCN(CCOC)C3)ncc1Cl [Example 484, 2-{5-Chloro-2-[4-(2-methoxy-ethyl)-1-methyl-2,3,4,5-tetrahydro-1H-benzo[e][1,4]diazepin-8-ylamino]-pyrimidin-4-ylamino}-N-methyl-benzamide] |  |  |  |  | IC50 [1, 9]: < 100 nM; IC50 [2, 10]: < 100 nM
CNC(=O)C1C2C=CC(C2)C1Nc1nc(Nc2cc3c(cc2OC)CCN(CCOC)CC3)ncc1Cl (stereo not drawn) [Example 604, (2-exo-3-exo)-3-{5-Chloro-2-[8-methoxy-3-(2-methoxy-ethyl)-2,3,4,5-tetrahydro-1H-benzo[d]azepin-7-ylamino]-pyrimidin-4-ylamino}-bicyclo[2.2.1]hept-5-ene-2-carboxylic acid methylamide] |  |  | < 100 | > 10000 | 
COc1cc2c(cc1Nc1ncc(Cl)c(Nc3ccccc3S(=O)(=O)N3CCCC3)n1)CCN(CCS(C)(=O)=O)CC2 [Example 1178, 5-Chloro-N*2*-[3-(2-methanesulfonyl-ethyl)-8-methoxy-2,3,4,5-tetrahydro-1H-benzo[d]azepin-7-yl]-N*4*-[2-(pyrrolidine-1-sulfonyl)-phenyl]-pyrimidine-2,4-diamine] | < 100 | 100 to 1000 |  |  | 
CN1CCNCc2cc(Nc3ncc(Cl)c(N[C@@H]4CCCC[C@H]4NS(C)(=O)=O)n3)ccc21 [Example 422, N-{(1R,2R)-2-[5-Chloro-2-(1-methyl-2,3,4,5-tetrahydro-1H-benzo[e][1,4]diazepin-7-ylamino)-pyrimidin-4-ylamino]-cyclohexyl}-methanesulfonamide] |  |  |  |  | IC50 [1, 9]: < 100 nM; IC50 [2, 10]: 1000 to 10000 nM

The next lines start with results.

IC50 [1, 5] [nM] | IC50 [2, 6] [nM] | IC50 [1, 7] [nM] | IC50 [2, 8] [nM] | Compound | further results
< 100 | 1000 to 10000 |  |  | CCN1C(=O)[C@H](N(C)C)CCc2c1ccc(Nc1ncc(Cl)c(N[C@H]3[C@@H](C(N)=O)[C@@H]4C=C[C@H]3C4)n1)c2OC (single isomer, unassigned) [Example 1346] | 
 |  | < 100 | 100 to 1000 | CCN1CCN(CC)c2cc(Nc3ncc(Cl)c(Nc4ccccc4-n4cccn4)n3)ccc2C1 [Example 725, 5-Chloro-N(2)-(1,4-diethyl-2,3,4,5-tetrahydro-1H-benzo[e][1,4]diazepin-8-yl)-N(4)-(2-pyrazol-1-yl-phenyl)-pyrimidine-2,4-diamine] | 
100 to 1000 | 100 to 1000 |  |  | COCCN1CCc2ccc(Nc3ncc(Cl)c(Nc4ccccc4C(=O)NCCN4CCCC4)n3)cc2CC1 [Example 1416, 2-{5-Chloro-2-[3-(2-methoxy-ethyl)-2,3,4,5-tetrahydro-1H-benzo[d]azepin-7-ylamino]-pyrimidin-4-ylamino}-N-(2-pyrrolidin-1-yl-ethyl)-benzamide] | 
< 100 | > 10000 |  |  | COc1cc2c(cc1Nc1ncc(Cl)c(Nc3ccccc3-n3cccn3)n1)CCC(NCC(F)F)CC2 (stereo not shown) [Example 1059, 5-Chloro-N*2*-[7-(2,2-difluoro-ethylamino)-3-methoxy-6,7,8,9-tetrahydro-5H-benzocyclohepten-2-yl]-N*4*-(2-pyrazol-1-yl-phenyl)-pyrimidine-2,4-diamine] | 
 |  | 100 to 1000 | > 10000 | COc1c(Nc2ncc(Cl)c(NC3CCCCNC3=O)n2)ccc2c1CCC(N1CCOCC1)CC2 (mixture of isomers) [Example 902, 3-[5-Chloro-2-(1-methoxy-7-morpholin-4-yl-6,7,8,9-tetrahydro-5H-benzocyclohepten-2-ylamino)-pyrimidin-4-ylamino]-azepan-2-one] | 
< 100 | < 100 |  |  | CNC(=O)c1cc(-c2cnn(C)c2)cc(F)c1Nc1nc(Nc2ccc3c(c2)OCCCN3C(=O)OC)ncc1Cl [Example 1434, 3-{5-Chloro-4-[2-fluoro-6-methylcarbamoyl-4-(1-methyl-1H-pyrazol-4-yl)-phenylamino]-pyrimidin-2-ylamino}-7,8-dihydro-6H-5-oxa-9-aza-benzocycloheptene-9-carboxylic acid methyl ester] | 
 |  | < 100 | 100 to 1000 | CN1C(=O)CCCc2cc(Nc3ncc(Cl)c(Nc4ccccc4-c4nccn4C)n3)ccc21 [Example 995, 7-{5-Chloro-4-[2-(1-methyl-1H-imidazol-2-yl)-phenylamino]-pyrimidin-2-ylamino}-1-methyl-1,3,4,5-tetrahydro-benzo[b]azepin-2-one] | 
< 100 | > 10000 |  |  | CCN1C(=O)[C@@H](N)CCc2c1ccc(Nc1ncc(Cl)c(N[C@H]3[C@@H](C(N)=O)[C@@H]4C=C[C@H]3C4)n1)c2OC (single isomer, unassigned) [Example 1332] | 
 |  | < 100 | > 10000 | COc1cc2c(cc1Nc1ncc(Cl)c(Nc3ccc(C(F)(F)F)cc3S(=O)(=O)N(C)C)n1)CCN(CC(=O)N(C)C)CC2 [Example 843, 2-{7-[5-Chloro-4-(2-dimethylsulfamoyl-4-trifluoromethyl-phenylamino)-pyrimidin-2-ylamino]-8-methoxy-1,2,4,5-tetrahydro-benzo[d]azepin-3-yl}-N,N-dimethyl-acetamide] | 
